{"source": "patent US5206223A", "about": "“Method for inhibiting heparanase activity” (Yeda Research and Development Co. Ltd., priority 1986, dated 1993)", "key": {"DTH reaction": {"tested_on": "DTH reaction", "assay": "Adoptively transferred DTH to OX: ear swelling and 51Cr I-LNC migration to the ear", "assay_type": "in vivo, mice", "settings": "for DTH ear swelling (FIG. 6 left): I-LNC transferred intravenously, 24 h", "protocol": "I-LNC were obtained from OX sensitized mice (groups A-C) and naive LNC from unsensitized mice (group D). The LNC were transferred intravenously to naive recipients that were treated (groups B-C) or untreated (groups A,D) with heparin (5 μg or 20 μg) injected 18 h and 1 h prior to cell transfer and 20 h after cell transfer. DTH ear swelling was elicited by OX at the time of cell transfer and measured 24 h later.\nRight: Heparin inhibits cell migration to DTH challenge site. The experiment was done as described in FIG. 6 (left), except that I-LNC were radiolabeled with ^51 Cr prior to cell transfer into naive recipient mice. The accumulation of I-LNC in the OX challenged ears is indicated as the ^51 Cr (cpm/ear).\nMice were sensitized to 4-ethoxymethylene-2-phenyl oxazolone (OX) by painting their skins twice at 5 day intervals with about 0.1 ml of 3% OX in a vehicle of 4:1 acetone:olive oil (by volume). Their immunized draining lymph node cells (I-LNC) were then transfered (5×10^7) to recipient mice intravenously. The ability of the I-LNC to reach the site of antigen and produce a DTH reaction was assayed by challenging the recipient mice 1 hr after I-LNC transfer with 0.02 ml of 0.5% OX painted on the ear. DTH was ascertained by measuring the thickness of the ears 24 hrs later with an engineers micrometer.\nThe ability of the transfered I-LNC to reach the ears was tested by labeling the I-LNC before transfer with radioactive ^51 Cr (10^7 cells/ml incubated with 0.1 mCi ^51 Cr sodium chromate and washed) and measuring the amount cpm reaching the ears at the time of DTH."}, "heparanase": {"tested_on": "heparanase", "assay": "Heparanase activity of I-LNC from heparin-treated OX-immunized mice", "settings": "5 μg per injection in vivo, I-LNC incubated 48 h with labeled ECM", "protocol": "Mice were immunized with OX on days 0 and 5. Some of the mice were treated with heparin (5 μg or 25 μg per injection) 18 h before and 2, 10 and 20 h after the day 5 immunization with OX. On day 6, the I-LNC were removed and tested for heparanase activity by incubation for 48 h with labeled ECM. Heparan sulfate degradation products are shown for I-LNC from the following groups of mice: No heparin; 25 μg heparin X; 5 μg heparin-0. The LNC of control mice not immunized to OX had no heparanase activity (not shown).\nTo learn if these effects were associated with inhibition of endogenous heparanase, we treated mice with high (25 μg) or low (5 μg) doses of heparin, sensitized them to OX and tested their I-LNC for heparanase activity in vitro. […] Thus, treatment with 5 μg of heparin in vivo caused a substantial decrease of enzyme activity in sensitized lymphocytes."}, "[1]": {"assay": "Partial thromboplastin time in human volunteers", "assay_type": "in vivo", "settings": "3 mg (500 units) per day", "protocol": "The effective dose of heparin, 3 mg (500 units) per day, was computed from the optimal dose per weight in mice and rats and corrected for surface area. […] (not shown)."}, "rheumatoid arthritis": {"tested_on": "rheumatoid arthritis", "assay": "Treatment of patients with rheumatoid arthritis", "assay_type": "in vivo, human", "settings": "about 300-500 units daily for 1 month, three patients", "description": "As DTH reactions to self antigens are involved in autoimmune diseases, we have begun to test low dose heparin (about 300-500 units daily) in patients with rheumatoid arthritis."}}, "data": [{"substance": "heparin", "values": [{"measurement": "Accumulation of 51Cr I-LNC in OX challenged ears (cpm/ear, FIG. 6 right)", "setting": "DTH reaction; 5 μg per injection", "result": "decreased cpm"}, {"measurement": "DTH ear swelling (FIG. 6 left)", "setting": "DTH reaction; 5 μg per injection", "result": "decreased ear swelling"}, {"measurement": "Accumulation of 51Cr I-LNC in OX challenged ears (cpm/ear, FIG. 6 right)", "setting": "DTH reaction; 20 μg per injection", "result": "did not inhibit"}, {"measurement": "DTH ear swelling (FIG. 6 left)", "setting": "DTH reaction; 20 μg per injection", "result": "did not inhibit"}, {"measurement": "Heparanase activity of I-LNC (FIG. 7)", "setting": "heparanase", "result": "lacked heparanase activity"}, {"measurement": "Partial thromboplastin time", "setting": "[1]", "result": "no change in the partial thromboplastin time"}, {"measurement": "Clinical improvement of severe rheumatoid arthritis", "setting": "rheumatoid arthritis", "result": "all 3 were improved"}]}]}
